Experimental data published in patent US6458862B1, “Foaming agents” (priority 1998, dated 2002).

Legend:
[1] = Inflammability in air; type: physicochemical; settings: marked § flammable
[2] = system: rat; assay: Acute toxicity in the oral rat, LD50; type: in vivo
[3] = system: rat; assay: Acute toxicity in the rat by inhalation, LD50; type: in vivo; settings: 4 hours

SMILES | Inflammability in air, % volume [1] | Acute toxicity in the oral rat, LD50 [2] [ppmv/4 hours] | Acute toxicity in the rat by inhalation, LD50 [3] [ppmv/4 hours]
CC(F)(Cl)Cl [HCFC 141b, 1,1-dichloro-1-fluoroethane] | 7.6-17.7§ % volume | >5000 | 62000
FC(F)OC(F)(F)OC(F)F [HCF2OCF2OCF2H, difluoromethoxy-bis(difluoromethyl ether)] | – | >5000 | >32000
FC(F)OC(F)(F)C(F)(F)OC(F)F [HCF2OCF2CF2OCF2H, 1-difluoromethoxy-1,1,2,2-tetrafluoroethyl difluoromethyl ether] | – | >5000 | >32000
FC(Cl)(Cl)Cl [CFC 11, trichloro-fluoromethane] | – | >1000 | 26200
